Source: US20160002248A1, “GLS1 INHIBITORS FOR TREATING DISEASE” (Board of Regents, The University of Texas System, priority 2014, published 2016)

Assays:
[1] = target: T1, purified recombinant human GAC (GLS1) (Homo sapiens, UniProt O94925); assay: GLS1 Enzymatic Activity Assay (dual-coupled enzymatic assay); type: biochemical
T1 sequence (O94925 55-598 isoform O94925-3 limits assumed): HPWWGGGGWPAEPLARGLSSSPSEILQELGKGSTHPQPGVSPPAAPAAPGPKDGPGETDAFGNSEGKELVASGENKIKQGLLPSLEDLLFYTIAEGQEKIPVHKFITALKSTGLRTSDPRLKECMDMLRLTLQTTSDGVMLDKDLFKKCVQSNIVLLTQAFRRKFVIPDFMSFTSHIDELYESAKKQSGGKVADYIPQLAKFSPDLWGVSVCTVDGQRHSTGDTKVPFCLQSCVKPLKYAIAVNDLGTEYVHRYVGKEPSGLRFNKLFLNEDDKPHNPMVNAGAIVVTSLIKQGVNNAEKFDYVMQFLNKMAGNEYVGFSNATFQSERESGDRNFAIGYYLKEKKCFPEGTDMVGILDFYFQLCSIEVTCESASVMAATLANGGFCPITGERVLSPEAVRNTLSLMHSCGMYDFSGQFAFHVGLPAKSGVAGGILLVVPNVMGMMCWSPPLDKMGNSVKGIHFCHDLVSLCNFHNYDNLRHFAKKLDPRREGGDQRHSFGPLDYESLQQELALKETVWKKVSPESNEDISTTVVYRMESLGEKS
Method in brief: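 Recombinant human GAC (2 nM) preincubated with 50 mM potassium phosphate, then inhibitor (10 min each, RT); 1 mM glutamine, pH 7.4 Hepes buffer, 1% DMSO. Glutamate coupled via glutamate oxidase/HRP to resorufin (Ex 530/Em 590), kinetic or 20-min endpoint; IC50 by four-parameter logistic fit.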

A549 cells = assay: Proliferation Assay (A549 cell viability, Cell Titer Fluor); type: cell-based; conditions: 72 hours
Method in brief: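 A549 cells seeded at 1000 cells/well, left 24 h, then exposed to compound for 72 h at 37 °C, 5% CO2, final DMSO 0.5% (v/v). Viability read by Cell Titer Fluor fluorescence; EC50 from four-parameter logistic fit.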

| Compound | IC50 [1] | EC50 (A549 cells; Homo sapiens) | EC50 (A549 cells) |
| --- | --- | --- | --- |
| Cc1ccc(CNC(=O)c2cn(CCCCc3cc4cc(-c5ccccc5Cl)[nH]c4nn3)nn2)cn1 [Example 236, 1-{4-[6-(2-chlorophenyl)-7H-pyrrolo[2,3-c]pyridazin-3-yl]butyl}-N-[(6-methylpyridin-3-yl)methyl]-1H-1,2,3-triazole-4-carboxamide] | < 100 nM | 100 to 500 nM | – |
| COCCOC(=O)N1CC(c2cc3cc(CCCCn4cc(C(=O)NCc5cc(OC(F)(F)F)ccc5F)nn4)nnc3[nH]2)C1 [Example 237, 2-methoxyethyl 3-(3-{4-[4-({[2-fluoro-5-(trifluoromethoxy)phenyl]methyl}carbamoyl)-1H-1,2,3-triazol-1-yl]butyl}-7H-pyrrolo[2,3-c]pyridazin-6-yl)azetidine-1-carboxylate] | < 100 nM | 100 to 500 nM | – |
| O=C(NCc1cc(OC(F)(F)F)ccc1F)c1cn(CCCCc2cc3cc(C4CN(C(=O)Cc5ccccc5)C4)[nH]c3nn2)nn1 [Example 238, N-{[2-fluoro-5-(trifluoromethoxy)phenyl]methyl)-1-(4-{6-[1-(2-phenylacetyl)azetidin-3-yl]-7H-pyrrolo[2,3-c]pyridazin-3-yl}butyl)-1H-1,2,3-triazole-4-carboxamide] | < 100 nM | < 100 nM | – |
| CC(C)(O)c1ccnc(CNC(=O)c2cn(CCCCc3cc4cc(-c5ccccc5F)[nH]c4nn3)nn2)c1 [Example 239, 1-{4-[6-(2-fluorophenyl)-7H-pyrrolo[2,3-c]pyridazin-3-yl]butyl}-N-{[4-(2-hydroxypropan-2-yl)pyridin-2-yl]methyl}-1H-1,2,3-triazole-4-carboxamide] | < 100 nM | 100 to 500 nM | – |
| CNC(=O)c1cn(CCCCc2cc3cc(-c4ccccc4F)[nH]c3nn2)nn1 [Example 240, 1-{4-[6-(2-fluorophenyl)-7H-pyrrolo[2,3-c]pyridazin-3-yl]butyl}-N-methyl-1H-1,2,3-triazole-4-carboxamide] | 100 to 500 nM | 100 to 500 nM | – |
| Cc1ccc(CNC(=O)c2cn(CC(F)CCc3cc4cc(-c5ccccc5F)[nH]c4nn3)nn2)cn1 (centres unmarked) [Example 241, 1-(2-fluoro-4-(6-(2-fluorophenyl)-7H-pyrrolo[2,3-c]pyridazin-3-yl)butyl)-N-((6-methylpyridin-3-yl)methyl)-1H-1,2,3-triazole-4-carboxamide] | < 100 nM | < 100 nM | – |
| O=C(NCc1ccccn1)c1cn(CC(F)CCc2cc3cc(-c4ccccc4F)[nH]c3nn2)nn1 (centres unmarked) [Example 242, 1-{2-fluoro-4-[6-(2-fluorophenyl)-7H-pyrrolo[2,3-c]pyridazin-3-yl]butyl}-N-(pyridin-2-ylmethyl)-1H-1,2,3-triazole-4-carboxamide] | < 100 nM | 100 to 500 nM | – |
| CNC(=O)c1cn(CC(F)CCc2cc3cc(-c4ccccc4F)[nH]c3nn2)nn1 (centres unmarked) [Example 243, 1-{2-fluoro-4-[6-(2-fluorophenyl)-7H-pyrrolo[2,3-c]pyridazin-3-yl]butyl}-N-methyl-1H-1,2,3-triazole-4-carboxamide] | 100 to 500 nM | 500 to 5000 nM | – |
| O=C(NCc1cc(C2CC2)ccn1)c1cn(CC(F)CCc2cc3cc(-c4ccccc4F)[nH]c3nn2)nn1 (centres unmarked) [Example 244, N-[(4-cyclopropylpyridin-2-yl)methyl]-1-{2-fluoro-4-[6-(2-fluorophenyl)-7H-pyrrolo[2,3-c]pyridazin-3-yl]butyl}-1H-1,2,3-triazole-4-carboxamide] | < 100 nM | < 100 nM | – |
| N-(5-(4-(7H-pyrrolo[2,3-c]pyridazin-3-yl)butyl)-1,3,4-thiadiazol-2-yl)-2-phenylacetamide [Example 64] | < 100 nM | – | 500 to 5000 nM |
